Measured values: ChEMBL document CHEMBL3227932, “Conformations, DNA binding parameters, and antileukemic activity of certain cytotoxic protoberberine alkaloids” (J Med Chem, 1979)
Values after ≈ are worked out from the molar mass of the structure shown.

Columns and labels:
KB = test: Cytotoxicity against human KB cells; format: functional; conditions: read-out: ED50 (the source's name)
Mus musculus [1] = test: Toxicity in mouse P388 cells allografted mouse at 6.25 mg/kg; format: organism-based; set-up: dose 6.25 mg/kg; conditions: in vivo
Mus musculus [2] = test: Toxicity in mouse P388 cells allografted mouse at 3.13 mg/kg; format: organism-based; set-up: dose 3.13 mg/kg; conditions: in vivo
Mus musculus [3] = test: Toxicity in mouse P388 cells allografted mouse at 12.5 mg/kg; format: organism-based; set-up: dose 12.5 mg/kg; conditions: in vivo
Mus musculus [4] = test: Toxicity in mouse P388 cells allografted mouse at 100 mg/kg; format: organism-based; set-up: dose 100 mg/kg; conditions: in vivo
Mus musculus [5] = test: Toxicity in mouse P388 cells allografted mouse at 50 mg/kg; format: organism-based; set-up: dose 50 mg/kg; conditions: in vivo
P388 [6] = test: Antitumor activity against mouse P388 cells allografted in mouse at 12.5 mg/kg; format: functional
Mus musculus [7] = test: Toxicity in mouse P388 cells allografted mouse at 400 mg/kg; format: organism-based; set-up: dose 400 mg/kg; conditions: in vivo
Mus musculus [8] = test: Toxicity in mouse P388 cells allografted mouse at 200 mg/kg; format: organism-based; set-up: dose 200 mg/kg; conditions: in vivo
P388 [9] = test: Antitumor activity against mouse P388 cells allografted in mouse at 6.25 mg/kg; format: functional
P388 [10] = test: Antitumor activity against mouse P388 cells allografted in mouse at 3.13 mg/kg; format: functional
P388 [11] = test: Antitumor activity against mouse P388 cells allografted in mouse at 100 mg/kg; format: functional
P388 [12] = test: Antitumor activity against mouse P388 cells allografted in mouse at 400 mg/kg; format: functional
P388 [13] = test: Antitumor activity against mouse P388 cells allografted in mouse at 50 mg/kg; format: functional
P388 [14] = test: Antitumor activity against mouse P388 cells allografted in mouse at 200 mg/kg; format: functional
Mus musculus [15] = test: Toxicity in mouse P388 cells allografted mouse at 25 mg/kg; format: organism-based; set-up: dose 25 mg/kg; conditions: in vivo
P388 [16] = test: Antitumor activity against mouse P388 cells allografted in mouse at 25 mg/kg; format: functional

SMILES | EC50 (KB) [mg/L] | Activity (Mus musculus [1]) | Activity (Mus musculus [3]) | Activity (Mus musculus [4]) | Activity (Mus musculus [5]) | T/C (P388 [6]) | Activity (Mus musculus [7]) | Activity (Mus musculus [8]) | T/C (P388 [9]) | other results
COc1cc2c(cc1OC)[C@H](CO)[C@H]1c3cc4c(cc3CCN1C2)OCO4 (relative stereo) | > 100 |  |  |  |  |  |  |  |  | 
COc1cc2c(cc1OC)[C@@H](C)[C@H]1c3cc4c(cc3CCN1C2)OCO4 (relative stereo) | 0.47 (≈ 1.33 µM) |  |  |  |  |  |  |  |  | 
COc1cc2c(cc1OC)-c1c(C)c3ccc(OC)c(OC)c3c[n+]1CC2.[Cl-] | 4.76 | Non-toxic | Non-toxic | Toxic | Toxic | 107 | Toxic | Toxic | 102 | Activity (Mus musculus [2]): Non-toxic; T/C (P388 [10]): 105
COc1cc2c(cc1OC)[C@@H](CO)[C@H]1c3cc4c(cc3CCN1C2)OCO4 (relative stereo) | 2.65 (≈ 7.17 µM) |  |  | Non-toxic | Non-toxic |  | Non-toxic | Non-toxic |  | T/C (P388 [11]): 98; T/C (P388 [12]): 129; T/C (P388 [13]): 115; T/C (P388 [14]): 105
COc1cc2c[n+]3c(c(C)c2cc1OC)-c1cc2c(cc1CC3)OCO2.[I-] | 2.98 | Non-toxic | Non-toxic | Toxic |  | 113 | Toxic | Toxic | 106 | Activity (Mus musculus [15]): Non-toxic; T/C (P388 [16]): 116
COc1cc2c(cc1OC)[C@H](C)[C@H]1c3cc4c(cc3CCN1C2)OCO4 (relative stereo) | > 100 |  |  |  |  |  |  |  |  | 
